Like-named read-outs stand apart in the source and are kept apart here.
What was measured:
[1] = cited from earlier work
[2] = tested on: Human lung cancer cell H460; assay: Cell proliferative activity (MTT / cck-8); assay type: cell-based; details: NCI-H460, incubated for 96 hours, read-out: Half-Inhibitory Concentration IC50 Human lung cancer cell H460
Protocol: (§1) Tumor cell line A375: human melanoma cell; H460: lung adenocarcinoma cell; Hela: human cervical cancer cell; HepG2: human liver cancer cell; and SKOV-3: human ovarian cancer cell, were all purchased from ATCC and cultured to logarithmic phase according to the cultivation protocol recommended by ATCC. The cells in the logarithmic phase were plated onto a 96-well plate at 2000-3000 cells/well; in the case of adherent cells, the cells should be adherent to the wall. […] After that, the cell proliferative activity was determined by MTT assay for the tumor cells representing the solid tumor model and by cck-8 assay for the tumor cells representing the hematologic tumor model.

[3] = tested on: Human ovarian cancer cell SKOV-3; assay: Cell proliferative activity (MTT / cck-8); assay type: cell-based; details: SK-OV-3, incubated for 96 hours, read-out: Half-Inhibitory Concentration IC50 Human ovarian cancer cell SKOV-3
Protocol: as §1

[4] = tested on: Human cervical cancer cell Hela; assay: Cell proliferative activity (MTT / cck-8); assay type: cell-based; details: incubated for 96 hours, read-out: Half-Inhibitory Concentration IC50 Human cervical cancer cell Hela
Protocol: as §1

Human melanoma A375 = assay: Cell proliferative activity (MTT / cck-8); assay type: cell-based; details: A-375, incubated for 96 hours, read-out: Half-Inhibitory Concentration IC50 Human melanoma A375
Protocol: as §1

[5] = tested on: Human liver cancer cell HepG2; assay: Cell proliferative activity (MTT / cck-8); assay type: cell-based; details: incubated for 96 hours, read-out: Half-Inhibitory Concentration IC50 Human liver cancer cell HepG2
Protocol: as §1

HDAC8 = target: T1, HDAC8 (Homo sapiens, UniProt Q9BY41); assay: HDAC inhibitory activity, fluorescence-coupled acetylated peptide substrate assay
T1 sequence (Q9BY41 1-377): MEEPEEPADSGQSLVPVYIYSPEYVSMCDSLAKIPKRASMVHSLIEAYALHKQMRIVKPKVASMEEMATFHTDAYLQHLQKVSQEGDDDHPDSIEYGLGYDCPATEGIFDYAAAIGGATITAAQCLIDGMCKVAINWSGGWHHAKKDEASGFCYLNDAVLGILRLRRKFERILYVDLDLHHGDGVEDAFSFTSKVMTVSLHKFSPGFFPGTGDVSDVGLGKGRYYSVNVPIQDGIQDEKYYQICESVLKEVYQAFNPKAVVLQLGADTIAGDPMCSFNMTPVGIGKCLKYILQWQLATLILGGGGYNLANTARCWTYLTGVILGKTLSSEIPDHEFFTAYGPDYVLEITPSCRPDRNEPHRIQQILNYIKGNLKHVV
Protocol: The HDAC inhibitory activity was determined by fluorescence-coupled acetylated peptide substrate assay (Lys-Ac-AMC). HDAC1 protein was purchased from BPS Bioscience, and the reaction buffer system was a modified tris(hydroxymethyl)aminomethane buffer (pH 7.0). The small molecule compounds of the present invention were prepared by being dissolved in 100% DMSO. HDAC was prepared in a buffer at a certain concentration as an enzyme solution; trypsin and fluorescent group 4-amino-7-coumarin coupled-acetylated peptide (Ac-peptide) substrate were prepared in a buffer at a certain concentration as a substrate solution. The compounds were added into the reaction wells in a 384-well plate at a designed concentration of 10 μM, 1 μM, 0.5 μM, 0.1 μM, 0.05 μM, 0.01 μM, 0.005 μM, 0.001 μM, and 0.00005 μM, respectively, and then 15 μl of the HDAC solution was added into the reaction wells (15 μl of blank buffer to the control well). […] The results were analyzed by GraphPad Prism software and IC50 values were calculated according to the formula: Y=Background Data+(Top Data−Background Data)/(1+10^((Log IC50−X) a curve slope)), where Y: the inhibition rate (%) and X: the concentration of the compound.

HCT116 cells = assay: Therapeutic effect on the colon cancer HCT116 model (intravenous); details: for survival time of mice: 9 times, vs blank control, P<0.01; for effect prolonging the survival time compared with positive control group: SAHA 50 mg/kg intraperitoneally
HDAC6 = target: T2, HDAC6 (Homo sapiens, UniProt Q9UBN7); assay: HDAC inhibitory activity, fluorescence-coupled acetylated peptide substrate assay; assay type: biochemical
T2 sequence (Q9UBN7 1-1215): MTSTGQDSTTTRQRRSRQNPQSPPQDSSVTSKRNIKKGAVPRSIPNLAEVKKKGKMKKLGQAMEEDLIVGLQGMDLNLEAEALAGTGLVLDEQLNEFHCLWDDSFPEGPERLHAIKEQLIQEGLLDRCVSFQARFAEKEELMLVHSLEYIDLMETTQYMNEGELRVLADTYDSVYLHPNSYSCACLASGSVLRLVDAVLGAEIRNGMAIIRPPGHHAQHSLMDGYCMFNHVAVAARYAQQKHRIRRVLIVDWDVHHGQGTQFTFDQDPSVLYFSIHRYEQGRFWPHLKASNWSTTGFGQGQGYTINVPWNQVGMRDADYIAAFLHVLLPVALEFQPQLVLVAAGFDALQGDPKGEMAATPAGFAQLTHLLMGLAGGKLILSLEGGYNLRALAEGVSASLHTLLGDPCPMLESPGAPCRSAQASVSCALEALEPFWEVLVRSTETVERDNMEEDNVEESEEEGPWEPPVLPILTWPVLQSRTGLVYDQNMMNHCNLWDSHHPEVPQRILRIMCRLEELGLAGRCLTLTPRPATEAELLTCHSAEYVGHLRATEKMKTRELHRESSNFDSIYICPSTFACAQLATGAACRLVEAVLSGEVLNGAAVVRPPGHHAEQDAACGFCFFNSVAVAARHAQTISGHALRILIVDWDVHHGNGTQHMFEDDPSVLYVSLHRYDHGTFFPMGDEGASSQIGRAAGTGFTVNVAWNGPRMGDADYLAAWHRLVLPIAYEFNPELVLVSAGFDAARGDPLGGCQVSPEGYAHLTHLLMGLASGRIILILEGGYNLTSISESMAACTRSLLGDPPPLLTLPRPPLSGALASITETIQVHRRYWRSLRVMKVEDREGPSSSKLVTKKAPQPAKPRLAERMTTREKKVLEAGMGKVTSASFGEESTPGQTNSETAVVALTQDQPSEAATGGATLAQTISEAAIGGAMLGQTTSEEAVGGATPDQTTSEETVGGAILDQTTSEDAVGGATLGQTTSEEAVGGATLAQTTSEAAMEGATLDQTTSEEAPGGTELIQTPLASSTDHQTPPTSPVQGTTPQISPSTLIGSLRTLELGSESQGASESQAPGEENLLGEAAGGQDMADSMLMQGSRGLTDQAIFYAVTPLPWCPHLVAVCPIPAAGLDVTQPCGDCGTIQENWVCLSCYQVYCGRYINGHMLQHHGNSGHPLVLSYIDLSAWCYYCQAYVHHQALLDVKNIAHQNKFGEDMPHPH

HDAC1 = target: T3, HDAC1 (Homo sapiens, UniProt Q13547); assay: HDAC inhibitory activity, fluorescence-coupled acetylated peptide substrate assay (Lys-Ac-AMC); assay type: biochemical
T3 construct: purchased BPS Bioscience
T3 sequence (Q13547 whole entry): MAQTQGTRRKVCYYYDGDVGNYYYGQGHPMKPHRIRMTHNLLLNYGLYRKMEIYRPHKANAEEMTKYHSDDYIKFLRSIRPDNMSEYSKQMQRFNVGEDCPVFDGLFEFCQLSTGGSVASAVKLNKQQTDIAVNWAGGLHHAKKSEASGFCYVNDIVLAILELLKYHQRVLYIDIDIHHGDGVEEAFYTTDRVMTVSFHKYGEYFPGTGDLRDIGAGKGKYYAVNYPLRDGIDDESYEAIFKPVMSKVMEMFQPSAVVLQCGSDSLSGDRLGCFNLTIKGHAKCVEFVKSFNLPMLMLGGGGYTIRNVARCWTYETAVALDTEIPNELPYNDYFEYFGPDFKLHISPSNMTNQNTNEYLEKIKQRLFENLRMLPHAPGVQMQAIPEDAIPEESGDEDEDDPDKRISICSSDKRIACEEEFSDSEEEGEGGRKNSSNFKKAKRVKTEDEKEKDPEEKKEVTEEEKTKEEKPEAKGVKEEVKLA

Row | Compound | elimination half-life in human body ([1]; human, clinical trials) | IC50 [2] | IC50 [3] | IC50 [4] | IC50 (Human melanoma A375) | IC50 [5] | IC50 (HDAC8; IC50 HDAC8, Table 2) | IC50 (HDAC8; read-out: IC50 HDAC8, Table 3) | survival time of mice (HCT116 cells; 50 mg/kg intravenously once every other day) | effect prolonging the survival time compared with positive control group (HCT116 cells; 50 mg/kg intravenously) | IC50 (HDAC6; Table 2) | IC50 (HDAC6; Table 3) | Selection Ratio HDAC1/6 (HDAC6; ratio of IC50 HDAC1 to HDAC6) | Selection Ratio HDAC8/6 (HDAC6; ratio of IC50 HDAC8 to HDAC6) | IC50 (HDAC1; Table 2) | IC50 (HDAC1; Table 3) | survival time of mice (HCT116 cells; 10 mg/kg intravenously once every other day) | effect prolonging the survival time compared with positive control group (HCT116 cells; 10 mg/kg intravenously) | incidence of medication-related adverse reactions above Phase III ([1]; clinical data) | toxic side effects ([1]; clinical data)
1 | Nc1ccccc1NC(=O)c1ccc(CNC(=O)OCc2cccnc2)cc1 [Entinostat] | ~100 h | – | – | – | – | – | – | – | – | – | – | – | – | – | – | – | – | – | – | –
2 | Cc1nc(N(C)c2ccc(OCCCC(=O)NO)cc2)c2ccccc2n1 [II-2, N-hydroxy-4-(4-(methyl(2-methyl-4-quinazolinyl)amino)phenoxy)butanamide] | – | 0.1 to 1 µM | 0.01 to 0.1 µM | 0.1 to 1 µM | 0.1 to 1 µM | 0.01 to 0.1 µM | > 1 µM | 1.47 µM | significantly prolonged the survival time of mice | superior to that of the positive control group | 0.1 to 1 µM | 0.196 µM | 0.4 | 7.5 | 0.01 to 0.1 µM | 0.084 µM | – | – | – | –
3 | COc1ccc(N(C)c2nc(C)nc3ccccc23)cc1OCC(=O)NO [III-1, N-hydroxy-2-(2-methoxy-5-(methyl(2-methyl-4-quinazolinyl)amino)phenoxy) acetamide] | – | < 0.01 µM | < 0.01 µM | < 0.01 µM | 0.01 to 0.1 µM | < 0.01 µM | > 1 µM | – | – | – | > 1 µM | – | – | – | > 1 µM | – | significantly prolonged the survival time of mice | superior to that of the positive control group | – | –
4 | COc1ccc(N(C)c2nc(C)nc3ccccc23)cc1OCCCCCC(=O)NO [III-4, N-hydroxy-6-(2-methoxy-5-(methyl(2-methyl-4-quinazolinyl)amino)phenoxy)hexanamide] | – | 0.1 to 1 µM | 0.1 to 1 µM | 0.1 to 1 µM | 0.1 to 1 µM | 0.1 to 1 µM | > 1 µM | – | – | – | 0.01 to 0.1 µM | – | – | – | 0.1 to 1 µM | – | – | – | – | –
5 | Cc1nc(N(C)c2cccc(OCC(=O)NO)c2)c2ccccc2n1 [III-12, N-hydroxy-2-(3-(methyl(2-methyl-4-quinazolinyl)amino)phenoxy)acetamide] | – | 0.1 to 1 µM | 0.1 to 1 µM | 0.1 to 1 µM | > 1 µM | 0.1 to 1 µM | > 1 µM | – | – | – | 0.01 to 0.1 µM | – | – | – | 0.1 to 1 µM | – | – | – | – | –
6 | Cc1nc(N(C)c2cccc(OCCCC(=O)NO)c2)c2ccccc2n1 [III-13, N-hydroxy-4-(3-(methyl(2-methyl-4-quinazolinyl)amino)phenoxy)butanamide] | – | 0.1 to 1 µM | 0.01 to 0.1 µM | 0.1 to 1 µM | 0.1 to 1 µM | 0.01 to 0.1 µM | > 1 µM | – | – | – | 0.1 to 1 µM | – | – | – | 0.1 to 1 µM | – | – | – | – | –
7 | Cc1nc(N(C)c2cccc(OCCCCC(=O)NO)c2)c2ccccc2n1 [III-14, N-hydroxy-5-(3-(methyl(2-methyl-4-quinazolinyl)amino)phenoxy)pentanamide] | – | 0.1 to 1 µM | 0.01 to 0.1 µM | 0.01 to 0.1 µM | 0.1 to 1 µM | 0.01 to 0.1 µM | > 1 µM | – | – | – | 0.1 to 1 µM | – | – | – | 0.1 to 1 µM | – | – | – | – | –
8 | Cc1nc(N(C)c2cccc(OCCCCCC(=O)NO)c2)c2ccccc2n1 [III-15, N-hydroxy-6-(3-(methyl(2-methyl-4-quinazolinyl)amino)phenoxy)hexanamide] | – | 0.1 to 1 µM | 0.1 to 1 µM | 0.1 to 1 µM | > 1 µM | 0.1 to 1 µM | > 1 µM | – | – | – | 0.01 to 0.1 µM | – | – | – | 0.01 to 0.1 µM | – | – | – | – | –
9 | CCCN(c1ccc(OC)c(OCCCC(=O)NO)c1)c1nc(C)nc2ccccc12 [IV-2, N-hydroxy-4-(2-methoxy-5-((2-methyl-4-quinazolinyl)(propyl)amino)phenoxy)butanamide] | – | 0.1 to 1 µM | 0.1 to 1 µM | > 1 µM | 0.1 to 1 µM | 0.1 to 1 µM | > 1 µM | – | – | – | > 1 µM | – | – | – | > 1 µM | – | – | – | – | –
10 | CCCCCN(c1ccc(OC)c(OCCCC(=O)NO)c1)c1nc(C)nc2ccccc12 [IV-4, N-hydroxy-4-(2-methoxy-5-((2-methyl-4-quinazolinyl)(pentyl)amino)phenoxy)butanamide] | – | > 1 µM | > 1 µM | 0.1 to 1 µM | 0.1 to 1 µM | 0.1 to 1 µM | > 1 µM | – | – | – | 0.01 to 0.1 µM | – | – | – | 0.01 to 0.1 µM | – | – | – | – | –
11 | FK228 | – | – | – | – | – | – | – | – | – | – | – | – | – | – | – | – | – | – | up to 66% | cardiotoxicity

Source: patent US10532053B2, “Histone deacetylase inhibitor, and preparation method and use thereof” (GUANGDONG ZHONGSHENG PHARMACEUTICAL CO., LTD, priority 2015, dated 2020)
